Where a name gives a salt, the structure may show the parent alone.
Molecular target: T1, PLK1 (Homo sapiens, UniProt P53350)
T1 construct: PLK kinase domain (amino acids 21-346 preceded by MKKGHHHHHHD); made in house; host or cells: baculovirus infected T. ni cells
Test: Assay for inhibition of PLK1 (SPA kinase assay)
Type: biochemical
Conditions: 1 μM ATP, 2 nM PLK1 kinase domain, read-out: PLK1 pIC50 (converted)
Summary of the method: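 His-tagged PLK1 kinase domain (aa 21-346, baculovirus/T. ni) at 2 nM with 1 μM ATP plus 33P-γ-ATP and 1 μM biotinylated peptide in 25 mM HEPES pH 7.2, 15 mM MgCl2, 1 mM DTT, 0.15 mg/mL BSA; 1-1.5 h at 22° C. Streptavidin SPA capture read; percent inhibition versus DMSO, EDTA background.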

T1 sequence (P53350 21-346): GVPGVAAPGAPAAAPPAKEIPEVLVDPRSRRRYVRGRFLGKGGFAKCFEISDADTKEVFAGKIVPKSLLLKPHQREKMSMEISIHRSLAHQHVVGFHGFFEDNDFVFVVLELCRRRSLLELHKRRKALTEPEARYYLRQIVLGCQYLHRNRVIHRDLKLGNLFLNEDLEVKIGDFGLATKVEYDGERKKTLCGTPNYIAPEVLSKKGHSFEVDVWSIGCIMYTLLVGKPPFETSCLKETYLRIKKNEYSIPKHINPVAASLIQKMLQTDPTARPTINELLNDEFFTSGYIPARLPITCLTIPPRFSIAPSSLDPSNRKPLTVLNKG

| Compound | IC50 [nM] |
| --- | --- |
| C[C@@H](Oc1cc(-n2cnc3ccc(Cl)cc32)sc1C(N)=O)c1cccc(OC2CCNCC2)c1Cl [Example 52, 5-(6-Chloro-1H-benzimidazol-1-yl)-3-({(1R)-1-[2-chloro-3-(4-piperidinyloxy)phenyl]ethyl}oxy)-2-thiophenecarboxamide] | < 100 |
| C[C@@H](Oc1cc(-n2cnc3cc(Cl)ccc32)sc1C(N)=O)c1cccc(OC2CCN(C)CC2)c1Cl [Example 3] | < 100 |
| CC(Oc1cc(-n2cnc3cc(-c4cnn(C)c4)ccc32)sc1C(N)=O)c1cccc(OC2CCN(C)CC2)n1 (racemic) [Example 82, (+/−)-3-[(1-{6-[(1-Methyl-4-piperidinyl)oxy]-2-pyridinyl}ethyl)oxy]-5-[5-(1-methyl-1H-pyrazol-4-yl)-1H-benzimidazol-1-yl]-2-thiophenecarboxamide] | < 100 |
| C[C@@H](Oc1cc(-n2cnc3cc(-c4cccnc4)ccc32)sc1C(N)=O)c1cccc(OC2CCNCC2)c1Cl [Example 12, 3-({(1R)-1-[2-chloro-3-(4-piperidinyloxy)phenyl]ethyl}oxy)-5-[5-(pyridinyl)-1H-benzimidazol-1-yl]-2-thiophenecarboxamide] | < 100 |
| C[C@@H](Oc1cc(-n2cnc3ccc(CS(C)(=O)=O)cc32)sc1C(N)=O)c1cccc(OC2CCNCC2)c1Cl [Example 54, 3-({(1R)-1-[2-Chloro-3-(4-piperidinyloxy)phenyl]ethyl}oxy)-5-{6-[(methylsulfonyl)methyl]-1H-benzimidazol-1-yl}-2-thiophenecarboxamide] | < 100 |
| C[C@@H](Oc1cc(-n2cnc3cc(-c4cnn(C)c4)ccc32)sc1C(N)=O)c1cccc(OC2CCN(C(=O)OC(C)(C)C)CC2)c1Cl [Example 46, 1,1-Dimethylethyl 4-({3-[(1R)-1-({2-(aminocarbonyl)-5-[5-(1-methyl-1H-pyrazol-4-yl)-1H-benzimidazol-1-yl]-3-thienyl}oxy)ethyl]-2-chlorophenyl}oxy)-1-piperidinecarboxylate] | < 100 |
| COc1cc2ncn(-c3cc(O[C@H](C)c4cccc(OCC5CCN(C)CC5)c4Cl)c(C(N)=O)s3)c2cc1OC [Example 41, 5-[5,6-Bis(methyloxy)-1H-benzimidazol-1-yl]-3-{[(1R)-1-(2-chloro-3-{[(1-methyl-4-piperidinyl)methyl]oxy}phenyl)ethyl]oxy}-2-thiophenecarboxamide] | < 100 |
| C[C@@H](Oc1cc(-n2cnc3cc(-c4cnn(C)c4)ccc32)sc1C(N)=O)c1cccc(OCC2CCNCC2)c1Cl [Example 44, 3-[((1R)-1-{2-Chloro-3-[(4-piperidinylmethyl)oxy]phenyl}ethyl)oxy]-5-[5-(1-methyl-1H-pyrazol-4-yl)-1H-benzimidazol-1-yl]-2-thiophenecarboxamide trifluoroacetate] | < 100 |
| CCN1CCC(Oc2cccc([C@@H](C)Oc3cc(-n4cnc5cc(Cl)ccc54)sc3C(N)=O)c2Cl)CC1 [Example 19, 5-(5-Chloro-1H-benzimidazol-1-yl)-3-[((1R)-1-{2-chloro-3-[(1-ethyl-4-piperidinyl)oxy]phenyl}ethyl)oxy]-2-thiophenecarboxamide] | < 100 |
| CC(C)N1CCC(Oc2cccc([C@@H](C)Oc3cc(-n4cnc5cc(Cl)ccc54)sc3C(N)=O)c2Cl)CC1 [Example 24, 5-(5-Chloro-1H-benzimidazol-1-yl)-3-{[(1R)-1-(2-chloro-3-{[1-(1-methylethyl)-4-piperidinyl]oxy}phenyl)ethyl]oxy}-2-thiophenecarboxamide] | < 100 |
| C[C@@H](Oc1cc(-n2cnc3cc(-c4cnn(C)c4)ccc32)sc1C(N)=O)c1cccc(OC2CCN(CCS(C)(=O)=O)CC2)c1Cl [Example 31, 3-({(1R)-1-[2-Chloro-3-({1-[2-(methylsulfonyl)ethyl]-4-piperldinyl}oxy)phenyl]ethyl}oxy)-5-[5-(1-methyl-1H-pyrazol-4-yl)-1H-benzimidazol-1-yl]-2-thiophenecarboxamide] | < 100 |
| C[C@@H](Oc1cc(-n2cnc3cc(-c4cnn(C)c4)ccc32)sc1C(N)=O)c1ccc(F)c(OC2CCN(C)CC2)c1Cl [Example 34, 3-[((1R)-1-{2-Chloro-4-fluoro-3-[(1-methyl-4-piperidinyl)oxy]phenyl}ethyl)oxy]-5-[5-(1-methyl-1H-pyrazol-4-yl)-1H-benzimidazol-1-yl]-2-thiophenecarboxamide trifluoroacetate] | < 100 |
| COc1cc2ncn(-c3cc(O[C@H](C)c4cccc(NCC5CCN(C)CC5)c4Cl)c(C(N)=O)s3)c2cc1OC [Example 2] | < 100 |
| C[C@@H](Oc1cc(-n2cnc3cc(-c4cnn(C)c4)ccc32)sc1C(N)=O)c1ccc(F)c(OC2CCN(CCF)CC2)c1Cl [Example 35, 3-{[(1R)-1-(2-Chloro-4-fluoro-3-{[1-(2-fluoroethyl)-4-piperidinyl]oxy}phenyl)ethyl]oxy}-5-[5-(1-methyl-1H-pyrazol-4-yl)-1H-benzimidazol-1-yl]-2-thiophenecarboxamide] | < 100 |
| C[C@@H](Oc1cc(-n2cnc3cc(OC(F)(F)F)ccc32)sc1C(N)=O)c1cccc(OC2CCNCC2)c1Cl [Example 61, 3-({(1R)-1-[2-chloro-3-(4-piperidinyloxy)phenyl]ethyl}oxy)-5-{5-[(trifluoromethyl)oxy]-1H-benzimidazol-1-yl}-2-thiophenecarboxamide] | < 100 |
| Cc1ccc(-c2ccc3c(c2)ncn3-c2cc(O[C@H](C)c3cccc(OC4CCNCC4)c3Cl)c(C(N)=O)s2)cn1 [Example 9, 3-({(1R)-1-[2-chloro-3-(4-piperidinyloxy)phenyl]ethyl}oxy)-5-[5-(6-methyl-3-pyridinyl)-1H-benzimidazol-1-yl]-2-thiophenecarboxamide] | < 100 |
| COc1cc2ncn(-c3cc(O[C@H](C)c4cccc(OCC5CCNCC5)c4Cl)c(C(N)=O)s3)c2cc1OC [Example 40, 5-[5.6-Bis(methyloxy)-1H-benzimidazol-1-yl]-3-[((1R)-1-{2-chloro-3-[(4-piperidinylmethyl)oxy]phenyl}ethyl)oxy]-2-thiophenecarboxamide] | < 100 |
| CC(Oc1cc(-n2cnc3cc(-c4cnn(C)c4)ccc32)sc1C(N)=O)c1ccnc(OC2CCN(C)CC2)c1 (centres unmarked) [Example 80, 3-[(1-{2-[(1-Methyl-4-piperidinyl)oxy]-4-pyridinyl}ethyl)oxy]-5-[5-(1-methyl-1H-pyrazol-4-yl)-1H-benzimidazol-1-yl]-2-thiophenecarboxamide] | < 100 |
| CN1CCC(Oc2cccc(COc3cc(-n4cnc5cc(-c6cnn(C)c6)ccc54)sc3C(N)=O)c2)CC1 [Example 84, 3-[({3-[(1-Methyl-4-piperidinyl)oxy]phenyl}methyl)oxy]-5-[5-(1-methyl-1H-pyrazol-4-yl)-1H-benzimidazol-1-yl]-2-thiophenecarboxamide] | < 100 |
| CC(Oc1cc(-n2cnc3cc(-c4cnn(C)c4)ccc32)sc1C(N)=O)c1cccc(OC2CCN(C)CC2)c1F (racemic) [Example 76, (+/−)-3-[(1-{2-Fluoro-3-[(1-methyl-4-piperidinyl)oxy]phenyl}ethyl)oxy]-5-[5-(1-methyl-1H-pyrazol-4-yl)-1H-benzimidazol-1-yl]-2-thiophenecarboxamide] | < 100 |
| C[C@@H](Oc1cc(-n2cnc3cc(Cl)ccc32)sc1C(N)=O)c1cccc(OC2CCN(CCN)CC2)c1Cl [Example 22, 3-{[(1R)-1-(3-{[1-(2-aminoethyl)-4-piperidinyl]oxy}-2-chlorophenyl)ethyl]oxy}-5-(5-chloro-1H-benzimidazol-1-yl)-2-thiophenecarboxamide] | < 100 |
| C[C@@H](Oc1cc(-n2cnc3ccc(C#N)cc32)sc1C(N)=O)c1cccc(OC2CCN(C)CC2)c1Cl [Example 4, 3-((1R)-1-{2-chloro-3-[(1-methylpiperidin-4-yl)oxy]phenyl}-ethoxy)-5-(6-cyano-1H-benzimidazol-1-yl)thiophene-2-carboxamide] | < 100 |
| C[C@@H](Oc1cc(-n2cnc3cc(F)c(F)cc32)sc1C(N)=O)c1cccc(OC2CCNCC2)c1Cl [Example 65, 3-({(1R)-1-[2-chloro-3-(4-piperidinyloxy)phenyl]ethyl}oxy)-5-(5,6-difluoro-1H-benzimidazol-1-yl)-2-thiophenecarboxamide] | < 100 |
